The source made the active and inactive calls. The calls are words filed in the database; no cut-off is given here.
How the values were obtained:
Assay type in all cases: cell-based
[1] = target: T1, Vitamin D3 receptor (Homo sapiens) (UniProt P11473); assay: Agonist activity at vitamin D receptor (unknown origin) expressed in HEK293 cells co-expressing pCMX-RXRalpha and pCMX-beta-galactosidase assessed as induction of receptor transactivation incubated for 16 to 24 hrs by luciferase reporter gene assay relative to 3-keto-LCA
T1 sequence (whole entry): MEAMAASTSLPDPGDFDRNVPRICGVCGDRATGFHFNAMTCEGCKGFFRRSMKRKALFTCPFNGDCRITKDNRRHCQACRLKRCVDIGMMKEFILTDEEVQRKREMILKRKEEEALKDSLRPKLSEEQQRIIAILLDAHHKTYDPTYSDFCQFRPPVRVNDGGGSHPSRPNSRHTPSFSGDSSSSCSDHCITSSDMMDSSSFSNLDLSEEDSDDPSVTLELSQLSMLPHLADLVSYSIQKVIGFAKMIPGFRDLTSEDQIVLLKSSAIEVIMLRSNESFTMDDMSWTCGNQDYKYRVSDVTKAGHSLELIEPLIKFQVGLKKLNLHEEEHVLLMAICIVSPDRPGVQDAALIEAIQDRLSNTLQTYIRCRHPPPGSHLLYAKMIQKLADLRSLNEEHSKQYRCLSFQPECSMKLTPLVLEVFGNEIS

Vitamin D3 receptor = target: T2, Vitamin D3 receptor (Homo sapiens, UniProt P11473); assay: (§1) Agonist activity at vitamin D receptor (unknown origin) expressed in HEK293 cells co-expressing pCMX-RXRalpha and pCMX-beta-galactosidase assessed as induction of receptor transactivation incubated for 16 to 24 hrs by luciferase reporter gene assay
T2 sequence (P11473 whole entry): T1 sequence (whole entry)

[2] = target: T1, Vitamin D3 receptor (Homo sapiens); assay: as §1

Row | SMILES | Activity [1] | EC50 (Vitamin D3 receptor) [µM] | Activity [2]
1 | CC(C)(O)CCC[C@H]1C[C@@]12CC[C@H]1[C@@H]3CCc4cc(O)ccc4[C@H]3CC[C@@]12C | Active |  | 
2 | CC(C)(O)CCC[C@@H]1C[C@@]12CC[C@H]1[C@@H]3CCc4cc(O)ccc4[C@H]3CC[C@@]12C | Active | 3.7 | 
3 | CC(C)(O)CCC[C@@H]1C[C@@H]2C[C@H]3[C@@H]4CCc5cc(O)ccc5[C@H]4CC[C@]3(C)[C@]12O | Active | 4.1 | 
4 | C[C@H](CCC(=O)O)[C@H]1CC[C@H]2[C@@H]3CC[C@@H]4CC(=O)CC[C@]4(C)[C@H]3CC[C@]12C |  |  | Active
5 | C[C@H](CCCC(C)(C)O)[C@H]1CC[C@H]2[C@@H]3CCc4cc(O)ccc4[C@H]3CC[C@]12C |  | 0.85 | 

Now from value to molecule, other results behind:

Row | Activity [1] | EC50 (Vitamin D3 receptor) [µM] | SMILES | Activity [2]
6 | inactive |  | C[C@]12CCC(=O)C[C@H]1CC[C@@H]1[C@@H]2CC[C@@]2(C)[C@H]1C[C@H]1C[C@H](CCC(=O)O)[C@]12O | 
7 | inactive |  | C[C@]12CCC(=O)C[C@H]1CC[C@@H]1[C@@H]2CC[C@@]2(C)[C@H]1CC[C@@]21C[C@@H]1CCC(=O)O | 
8 | inactive |  | C[C@]12CCC(=O)C[C@H]1CC[C@@H]1[C@@H]2CC[C@@]2(C)[C@H]1CC[C@@]21C[C@H]1CCC(=O)O | 
9 | inactive |  | C[C@]12CCC(=O)C[C@H]1CC[C@@H]1[C@@H]2CC[C@@]2(C)[C@H]1C[C@H]1C[C@@H](CCC(=O)O)[C@]12O | 
10 | Active |  | CC(C)(O)CCC[C@H]1C[C@@H]2C[C@H]3[C@@H]4CCc5cc(O)ccc5[C@H]4CC[C@]3(C)[C@@]21O | 

Reference: ChEMBL document CHEMBL4033744, “Synthesis and biological evaluation of steroidal derivatives bearing a small ring as vitamin D receptor agonists” (Bioorg Med Chem Lett, 2017)
